Data from patent US9796671B2, “Aurora kinase inhibitors” (REGENTS OF THE UNIVERSITY OF MINNESOTA, priority 2012, dated 2017).

How the values were obtained:
[1] = system: A549 cells transfected with mock shRNA; assay: Anchorage-independent growth, mock shRNA cells; assay type: cell-based; settings: Homo sapiens
Procedure: (§1) Tumor cells are suspended in basal medium Eagle (BME) medium and added to 0.6% agar, with different concentrations of Compound 1 in a base layer and a top layer of 0.3% agar. The cultures are maintained at 37° C. in a 5% CO2 incubator for 1 to 2 weeks and then colonies are counted under a microscope using the Image-Pro Plus software (v.4) program (Media Cybernetics, Silver Spring, Md.).
The effect of knocking down Aurora B expression in A549 cancer cells on the cell's sensitivity to Compound 1 was evaluated. […] Compound 1 (0.5 μM) inhibited anchorage-independent growth of A549 cells transfected with mock shRNA by about 90%.

[2] = system: histone H3 phosphorylation on Ser10; assay: Histone H3 (Ser10) phosphorylation in lung cancer cells (Western blot); assay type: cell-based; settings: dose- and time-dependent
Text: Proteins are resolved by SDS-PAGE and transferred onto polyvinylidene difluoride membranes (Millipore, Mass.), which are blocked with nonfat milk and hybridized with specific primary antibodies. The protein bands are visualized using an enhanced chemiluminescence reagent (GE Healthcare, Pittsburgh, Pa.) after hybridization with a horseradish peroxidase-conjugated secondary antibody.
Phosphorylation of a highly conserved serine residue (Ser10) in histone H3 is thought to be crucial for entry into mitosis.

H520 cells [3] = assay: Anchorage-independent growth of human lung cancer cells; assay type: cell-based
Procedure: as §1
(§2) The effect of Compound 1 treatment on anchorage-independent growth of human lung cancer cells, including A549, H1650, and H520 cells was then examined. […] Compound 1 at 0.5 or 1 μM caused a decrease of more than 80% or 90% compared to control in all cell lines detected.

A549 cells [4] = assay: as above; assay type: cell-based
Procedure: as §1, §2

H1650 cells = assay: as above; assay type: cell-based
Procedure: as §1, §2

H520 cells [5] = assay: Cell cycle analysis (flow cytometry); assay type: cell-based, human; settings: H520, 48 hours
Procedure: (§3) Cells are plated in 60-mm plates and treated or not treated with Compound 1 for the indicated time. At each time point, cells are fixed in 70% ethanol and stored at −20° C. for 24 h. After staining, the cell cycle distribution or apoptosis is determined using a BD FACSCalibur Flow Cytometer (BD Biosciences, San Jose, Calif.). Aurora B inhibition leads to failure in cytokinesis and abnormal exit from mitosis, which could result in polyploidy cells, cell cycle arrest, and ultimately apoptosis. The ability to induce polyploidy cells was further examined in A549 cells treated or not treated with Compound 1. […] In addition, Compound 1 treatment for 48 hours caused an increase in the number of A549 and H520 cells occupying the G2/M phase. Moreover, exposure of these cells to Compound 1 for 72 hours induced apoptosis as measured by Annexin V/PI staining. For example, exposure to 5 μM Compound 1 induced 48% or 82% apoptosis in A549 cells and H520 cells, compared to 8% or 38% in untreated control cells, respectively.

A549 cells [6] = assay: Cell cycle analysis (flow cytometry); assay type: cell-based, human; settings: A549, 48 hours
Procedure: as §3

PKB beta (Akt2) = target: T1, PKB beta (Akt2) (Homo sapiens, UniProt P31751); assay: Kinase profile assay (Millipore); assay type: biochemical
T1 construct: purchased Millipore
Procedure: A kinase profile assay was performed by Millipore, to examine other potential targets of Compound 1. Only Akt2 activity was suppressed more than 50% after 5 μM compound 1 treatment, compared with the control (Table 2). In addition, the kinase activity of Aurora A was decreased less than 25% at 5 μM Compound 1.

A549 cells [7] = assay: Polyploidy induction (immunofluorescence microscopy); assay type: cell-based, human; settings: A549, 1 μM, 48 h
Procedure: A549 cells are seeded in four-chamber slides and cultured overnight. The cells are then treated with DMSO or Compound 1 (1 μM) for 48 h at 37° C. After treatment, the cells are washed with PBS and fixed with methanol for 12 hours, followed by blocking with 3% PBS for 1 hour. The cells are then incubated with α-tubulin antibodies (1:100) overnight and DNA is stained with 4′-6-diamidino-2-phenylindole (DAPI, Pierce) for 30 minutes at room temperature. The cells are evaluated by fluorescent microscopy.
as §3, with “Aurora” for “Cells are plated in 60-mm plates and treated or not treated with Compound 1 for the indicated time. At each time point, cells are fixed in 70% ethanol and stored at −20° C. for 24 h. After staining, the cell cycle distribution or apoptosis is determined using a BD FACSCalibur Flow Cytometer (BD Biosciences, San Jose, Calif.). Aurora”

T1 sequence (P31751 whole entry, species assumed): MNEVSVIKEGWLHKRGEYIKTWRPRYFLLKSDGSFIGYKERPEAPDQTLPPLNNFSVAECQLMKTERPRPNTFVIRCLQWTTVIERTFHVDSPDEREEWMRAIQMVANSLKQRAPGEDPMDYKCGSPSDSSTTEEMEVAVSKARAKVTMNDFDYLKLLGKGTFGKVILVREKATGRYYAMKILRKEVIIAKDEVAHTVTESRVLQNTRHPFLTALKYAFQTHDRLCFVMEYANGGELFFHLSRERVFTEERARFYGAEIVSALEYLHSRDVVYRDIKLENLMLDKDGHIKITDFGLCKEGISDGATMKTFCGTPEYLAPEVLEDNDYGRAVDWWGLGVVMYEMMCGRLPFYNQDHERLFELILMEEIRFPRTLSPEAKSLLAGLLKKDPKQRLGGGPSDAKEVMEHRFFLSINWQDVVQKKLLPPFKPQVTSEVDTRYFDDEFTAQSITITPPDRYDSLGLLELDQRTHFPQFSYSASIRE

SMILES: O=C(/C=C/c1ccc2c(c1)OCO2)/C=C1/C(=O)Nc2ccccc21 [Compound 1]
- inhibition at 0.5 µM [1]: ~90%
- histone H3 phosphorylation on Ser10 in cancer cells [2]: suppressed
- decrease of anchorage-independent growth compared to control (H520 cells [3]; H520, 0.5 μM): more than 80%
- decrease of anchorage-independent growth compared to control (H520 cells [3]; H520, 1 μM): > 90%
- decrease of anchorage-independent growth compared to control (A549 cells [4]; A549, 0.5 μM): more than 80%
- decrease of anchorage-independent growth compared to control (A549 cells [4]; A549, 1 μM): > 90%
- decrease of anchorage-independent growth compared to control (H1650 cells; H1650, 0.5 μM): more than 80%
- decrease of anchorage-independent growth compared to control (H1650 cells; H1650, 1 μM): > 90%
- number of cells occupying the G2/M phase (H520 cells [5]): increase
- number of cells occupying the G2/M phase (A549 cells [6]): increase
- Akt2 activity suppressed compared with the control (kinase profile) (PKB beta (Akt2); 5 μM): more than 50%
- remaining activity at 5 µM (PKB beta (Akt2); PKB beta (Akt2), read-out: kinase activity compared with the control): 47%
- induction of polyploidy cells (A549 cells [7]): caused the induction of polyploidy cells
